From patent publication US7109193B2, “Tricyclic diazepines tocolytic oxytocin receptor antagonists” (Wyeth, priority 2001, dated 2006) come the findings set out here.

In this assay the target is T1, human vasopressin V1a receptor subtype (Homo sapiens, UniProt P37288).
T1 construct: host or cells: CHO cells (pZeoSV vector for the Thibonnier line)
T1 sequence (P37288 whole entry): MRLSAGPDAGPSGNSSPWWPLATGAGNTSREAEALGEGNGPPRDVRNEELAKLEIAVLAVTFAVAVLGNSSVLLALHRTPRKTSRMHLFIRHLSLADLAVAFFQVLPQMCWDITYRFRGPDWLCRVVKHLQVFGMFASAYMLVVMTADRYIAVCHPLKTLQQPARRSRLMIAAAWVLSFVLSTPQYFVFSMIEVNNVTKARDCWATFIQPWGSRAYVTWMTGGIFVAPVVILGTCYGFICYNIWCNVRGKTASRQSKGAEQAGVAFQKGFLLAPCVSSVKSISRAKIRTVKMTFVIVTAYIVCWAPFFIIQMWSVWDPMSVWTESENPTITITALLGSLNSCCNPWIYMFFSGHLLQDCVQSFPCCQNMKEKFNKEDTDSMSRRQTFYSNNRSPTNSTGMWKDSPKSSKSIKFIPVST
As to the kind of experiment: Vasopressin binding in Chinese Hamster Ovary cell membranes expressing human vasopressin V1a subtype receptors. The settings on record: 100 nM, CHO cell membranes, [3H]Manning ligand, values without parentheses. An outline of the steps:
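Membranes from CHO cells expressing human V1a receptor were incubated with [3H]Manning ligand (added as 20 μL of 8 nM) in pH 7.4 Tris buffer with MgCl2, BSA and protease inhibitors, 60 min at room temperature. Bound radioactivity was counted after filtration; values are percent inhibition at a stated concentration or IC50.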
Regarding `COc1cccc(-c2ccc(C(=O)N3Cc4ccc(C(=O)N5CCN(C(C)C)CC5)n4Cc4ccccc43)cc2OC)c1` [Example 242, {10-[(2,3′-Dimethoxy[1,1′-biphenyl]-4-yl)carbonyl]-10,11-dihydro-5H-pyrrolo[2,1-c][1,4]benzodiazepin-3-yl}(4-isopropyl-1-piperazinyl)methanone], the inhibition – broadly, the percentage by which the read-out fell short of the control – at 0.1 µM stood at 33%.

Consider `COc1cccc(-c2cc(OC)c(C(=O)N3Cc4ccc(C(=O)N(C)C5CCN(C)CC5)n4Cc4ccccc43)cc2Cl)c1` [Example 181, 10-[(6-Chloro-3,3′-dimethoxy[1,1′-biphenyl]-4-yl)carbonyl]-N-methyl-N-(1-methyl4-piperidinyl)-10,11-dihydro-5H-pyrrolo[2,1-c][1,4]benzodiazepine-3-carboxamide], for which the inhibition at 0.1 µM was 23%.

`COc1cc(C(=O)N2Cc3ccc(C(=O)N4CCN(C(C)C)CC4)n3Cc3ccccc32)ccc1-c1cccc2ccccc12` [Example 236, (4-Isopropyl-1-piperazinyl){10-[3-methoxy-4-(1-naphthyl)benzoyl]-10,11-dihydro-5H -pyrrolo[2,1-c][1,4]benzodiazepin-3-yl}methanone]: the inhibition at 0.1 µM is 6%.

On to `COc1cccc(-c2cc(OC)c(C(=O)N3Cc4ccc(C(=O)NCCN5CCCCC5)n4Cc4ccccc43)cc2Cl)c1` [Example 156, 10-[(6-Chloro-3,3′-dimethoxy[1,1′-biphenyl]-4-yl)carbonyl]-N-[2-(1-piperidinyl)ethyl]-10,11-dihydro-5H-pyrrolo[2,1-c][1,4]benzodiazepine-3-carboxamide], for which the inhibition at 0.1 µM was 2%.

Regarding `Cc1cc(C(=O)N2Cc3ccc(C(=O)N4CCN(CCN5CCOCC5)CC4)n3Cc3ccccc32)ccc1-c1ccccc1C(F)(F)F` [Example 216, (10-{[2-Methyl-2′-(trifluoromethyl)[1,1′-biphenyl]-4-yl]carbonyl}-10,11-dihydro-5H -pyrrolo[2,1-c][1,4]benzodiazepin-3-yl){4-[2-(4-morpholinyl)ethyl]-1-piperazinyl}methanone], the inhibition at 0.1 µM was 10%.

With `C=CCN1CCN(C(=O)c2ccc3n2Cc2ccccc2N(C(=O)c2ccc(-c4ccccc4OC)c(C)c2)C3)CC1` [Example 222, (4-Allyl-1-piperazinyl){10-[(2′-methoxy-2-methyl[1,1′-biphenyl]-4-yl)carbonyl]-10,11-dihydro-5H-pyrrolo[2,1-c][1,4]benzodiazepin-3-yl}methanone], the inhibition at 0.1 µM is 15%.

For the compound `COc1cc(C(=O)N2Cc3ccc(C(=O)N4CCN(CCN5CCOCC5)CC4)n3Cc3ccccc32)ccc1-c1cccc2ccccc12` [Example 213, {10-[3-Methoxy-4-(1-naphthyl)benzoyl]-10,11-dihydro-5H-pyrrolo[2,1-c][1,4]benzodiazepin-3-yl}{4-[2-(4-morpholinyl)ethyl]-1-piperazinyl}methanone], the inhibition at 0.1 µM came out at 12%.

Regarding `COc1cccc(-c2ccc(C(=O)N3Cc4ccc(C(=O)NCCC5CCCN5C)n4Cc4ccccc43)cc2OC)c1` (stereo not drawn) [Example 172, 10-[(2,3′-Dimethoxy[1,1′-biphenyl]-4-yl)carbonyl]-N-[2-(1-methyl-2-pyrrolidinyl)ethyl]-10,11-dihydro-5H-pyrrolo[2,1-c][1,4]benzodiazepine-3-carboxamide], the inhibition at 0.1 µM was 43%.

In the case of `COc1ccccc1-c1ccc(C(=O)N2Cc3ccc(C(=O)NCCN4CCCCC4)n3Cc3ccccc32)cc1OC` [Example 158, 10-[(2,2′-Dimethoxy[1,1′-biphenyl]-4-yl)carbonyl]-N-[2-(1-piperidinyl)ethyl]-10,11-dihydro-5H-pyrrolo[2,1-c][1,4]benzodiazepine-3-carboxamide], the inhibition at 0.1 µM amounted to 16%.

Take `CN1CCCC1CCNC(=O)c1ccc2n1Cc1ccccc1N(C(=O)c1ccc(-c3cccc4ccccc34)cc1Cl)C2` (stereo not drawn) [Example 173, 10-[2-Chloro-4-(1-naphthyl)benzoyl]-N-[2-(1-methyl-2-pyrrolidinyl)ethyl]-10,11-dihydro-5H-pyrrolo[2,1-c][1,4]benzodiazepine-3-carboxamide]: the inhibition at 0.1 µM came out at 0%.

With `COc1cccc(-c2cc(OC)c(C(=O)N3Cc4ccc(C(=O)N5CCN(CCN(C)C)CC5)n4Cc4ccccc43)cc2Cl)c1` [Example 202, {10-[(6-Chloro-3,3′-dimethoxy[1,1′-biphenyl]-4-yl)carbonyl]-10,11-dihydro-5H-pyrrolo[2,1-c][1,4]benzodiazepin-3-yl}{4-[2-(dimethylamino)ethyl]-1-piperazinyl}methanone], the inhibition at 0.1 µM worked out at 2%.

Consider `COc1cccc(-c2cc(OC)c(C(=O)N3Cc4ccc(C(=O)NCCC5CCCN5C)n4Cc4ccccc43)cc2Cl)c1` (stereo not drawn) [Example 169, 10-[(6-Chloro-3,3′-dimethoxy[1,1′-biphenyl]-4-yl)carbonyl]-N-[2-(1-methyl-2-pyrrolidinyl)ethyl]-10,11-dihydro-5H-pyrrolo[2,1-c][1,4]benzodiazepine-3-carboxamide], for which the inhibition at 0.1 µM is 9%.

As for `Cc1ccccc1-c1ccc(C(=O)N2Cc3ccc(C(=O)N4CCN(CCN5CCOCC5)CC4)n3Cc3ccccc32)cc1C` [Example 218, {10-[(2,2′-Dimethyl[1,1′-biphenyl]-4-yl)carbonyl]-10,11-dihydro-5H-pyrrolo[2,1-c][1,4]benzodiazepin-3-yl}{4-[2-(4-morpholinyl)ethyl]-1-piperazinyl}methanone], the inhibition at 0.1 µM turned out to be 45%.

As for `Cc1cc(C(=O)N2Cc3ccc(C(=O)NCCC4CCCN4C)n3Cc3ccccc32)ccc1-c1ccccc1C(F)(F)F` (stereo not drawn) [Example 174, N-[2-(1-Methyl-2-pyrrolidinyl)ethyl]-10-{[2-methyl-2′-(trifluoromethyl)[1,1′-biphenyl]-4-yl]carbonyl}-10,11-dihydro-5H-pyrrolo[2,1-c][1,4]benzodiazepine-3-carboxamide], the inhibition at 0.1 µM stood at 8%.

With `COc1cc(C(=O)N2Cc3ccc(C(=O)NCCC4CCCN4C)n3Cc3ccccc32)ccc1-c1ccccc1C` (stereo not drawn) [Example 167, 10-[(2-Methoxy-2′-methyl[1,1′-biphenyl]-4-yl)carbonyl]-N-[2-(1-methyl-2-pyrrolidinyl)ethyl]-10,11-dihydro-5H-pyrrolo[2,1-c][1,4]benzodiazepine-3-carboxamide], the inhibition at 0.1 µM was 50%.

On to `COc1cccc(-c2ccc(C(=O)N3Cc4ccc(C(=O)N(C)C5CCN(C)CC5)n4Cc4ccccc43)cc2C)c1` [Example 176, 10-[(3′-Methoxy-2-methyl[1,1′-biphenyl]-4-yl)carbonyl]-N-methyl-N-(1-methyl-4-piperidinyl)-10,11-dihydro-5H-pyrrolo[2,1-c][1,4]benzodiazepine-3-carboxamide], for which the inhibition at 0.1 µM amounted to 27%.

`Cc1cc(C(=O)N2Cc3ccc(C(=O)N(C)C4CCN(C)C4)n3Cc3ccccc32)ccc1-c1ccccc1C(F)(F)F` (stereo not drawn) [Example 194, N-Methyl-N-(1-methyl-3-pyrrolidinyl)-10-{[2-methyl-2′-(trifluoromethyl)[1,1′-biphenyl]-4-yl]carbonyl}-10,11-dihydro-5H-pyrrolo[2,1-c][1,4]benzodiazepine-3-carboxamide]: the inhibition at 0.1 µM was 23%.

On to `Cc1cc(C(=O)N2Cc3ccc(C(=O)NCCN4CCCCC4)n3Cc3ccccc32)ccc1-c1ccccc1C(F)(F)F` [Example 161, 10-{[2-Methyl-2′-(trifluoromethyl)[1,1′-biphenyl]-4-yl]carbonyl}-N-[2-(1-piperidinyl)ethyl]-10,11-dihydro-5H-pyrrolo[2,1-c][1,4]benzodiazepine-3-carboxamide], for which the inhibition at 0.1 µM turned out to be 8%.

Regarding `O=C(c1ccc2n1Cc1ccccc1N(C(=O)c1ccc(-c3cccc4ccccc34)cc1Cl)C2)N1CCN(CCN2CCOCC2)CC1` [Example 215, {10-[2-Chloro-4-(1-naphthyl)benzoyl]-10,11-dihydro-5H-pyrrolo[2,1-c][1,4]benzodiazepin-3-yl}{4-[2-(4-morpholinyl)ethyl]-1-piperazinyl}methanone], the inhibition at 0.1 µM was determined as 5%.

In the case of `COc1ccccc1-c1ccc(C(=O)N2Cc3ccc(C(=O)N4CCN(C(C)C)CC4)n3Cc3ccccc32)cc1` [Example 234, (4-Isopropyl-1-piperazinyl){10-[(2′-methoxy[1,1′-biphenyl]-4-yl)carbonyl]-10,11-dihydro-5H-pyrrolo[2,1-c][1,4]benzodiazepin-3-yl}methanone], the inhibition at 0.1 µM was 26%.

As for `COc1cc(C(=O)N2Cc3ccc(C(=O)N4CCN(CCN(C)C)CC4)n3Cc3ccccc32)ccc1-c1ccccc1C` [Example 201, {4-[2-(Dimethylamino)ethyl]-1-piperazinyl}{10-[(2-methoxy-2′-methyl[1,1′-biphenyl]-4-yl)carbonyl]-10,11-dihydro-5H-pyrrolo[2,1-c][1,4]benzodiazepin-3-yl}methanone], the inhibition at 0.1 µM stood at 43%.

In the case of `COc1cc(-c2ccccc2C)c(Cl)cc1C(=O)N1Cc2ccc(C(=O)N(C)C3CCN(C)CC3)n2Cc2ccccc21` [Example 180, 10-[(6-Chloro-3-methoxy-2′-methyl[1,1′-biphenyl]-4-yl)carbonyl]-N-methyl-N-(1-methyl-4-piperidinyl)-10,11-dihydro-5H-pyrrolo[2,1-c][1,4]benzodiazepine-3-carboxamide], the inhibition at 0.1 µM was 26%.

As for `Cc1ccccc1-c1ccc(C(=O)N2Cc3ccc(C(=O)N(C)C4CCN(C)C4)n3Cc3ccccc32)cc1` (stereo not drawn) [Example 188, N-Methyl-10-[(2′-methyl[1,1′-biphenyl]-4-yl)carbonyl]-N-(1-methyl-3-pyrrolidinyl)-10,11-dihydro-5H-pyrrolo[2,1-c][1,4]benzodiazepine-3-carboxamide], the inhibition at 0.1 µM amounted to 89%.

Regarding `COc1cc(C(=O)N2Cc3ccc(C(=O)NCCC4CCCN4C)n3Cc3ccccc32)ccc1-c1cccc2ccccc12` (stereo not drawn) [Example 170, 10-[3-Methoxy-4-(1-naphthyl)benzoyl]-N-[2-(1-methyl-2-pyrrolidinyl)ethyl]-10,11-dihydro-5H-pyrrolo[2,1-c][1,4]benzodiazepine-3-carboxamide], the inhibition at 0.1 µM amounted to 21%.
